# Measured values: patent US5283248A, “Amino substituted pyrimido[1,6-2]benzimidazoles” (priority 1989, dated 1994)
# How the values were obtained:
# [1] = molecular target: T1, DNA-gyrase (Escherichia coli, UniProt P0AES4+P0AES6); test: DNA-gyrase inhibition, supercoiling method (relaxed pUC18 or pUC19 plasmid DNA as substrate); format: biochemical; conditions: E. coli DNA-gyrase
# T1 construct: made in house; host or cells: E. coli N4186 and E. coli MK47
# Source text: The inhibitory action on the DNA-gyrase activity in bacteria can be determined, for example, by means of the supercoiling method described by R. Otter and N. R. Cozzarelli in Methods in Enzymology, Vol. 100, pp. 171-180 (1983). The DNA-gyrase used was isolated from E. coli N4186 and from the sub-unit B of E. coli MK47 (Mitsuchi et al., JBL 159, 9199-9201 (1984)). Relaxed pUC18 or pUC19 plasmid DNA was used as the substrate. The results determined in this test are compiled in the following Table, with the results being expressed as the MNC (maximum non-effective concentration) in μg/ml.
# [2] = Toxicity, LD50; conditions: in vivo
# T1 sequence (P0AES4 whole entry, one chain of several): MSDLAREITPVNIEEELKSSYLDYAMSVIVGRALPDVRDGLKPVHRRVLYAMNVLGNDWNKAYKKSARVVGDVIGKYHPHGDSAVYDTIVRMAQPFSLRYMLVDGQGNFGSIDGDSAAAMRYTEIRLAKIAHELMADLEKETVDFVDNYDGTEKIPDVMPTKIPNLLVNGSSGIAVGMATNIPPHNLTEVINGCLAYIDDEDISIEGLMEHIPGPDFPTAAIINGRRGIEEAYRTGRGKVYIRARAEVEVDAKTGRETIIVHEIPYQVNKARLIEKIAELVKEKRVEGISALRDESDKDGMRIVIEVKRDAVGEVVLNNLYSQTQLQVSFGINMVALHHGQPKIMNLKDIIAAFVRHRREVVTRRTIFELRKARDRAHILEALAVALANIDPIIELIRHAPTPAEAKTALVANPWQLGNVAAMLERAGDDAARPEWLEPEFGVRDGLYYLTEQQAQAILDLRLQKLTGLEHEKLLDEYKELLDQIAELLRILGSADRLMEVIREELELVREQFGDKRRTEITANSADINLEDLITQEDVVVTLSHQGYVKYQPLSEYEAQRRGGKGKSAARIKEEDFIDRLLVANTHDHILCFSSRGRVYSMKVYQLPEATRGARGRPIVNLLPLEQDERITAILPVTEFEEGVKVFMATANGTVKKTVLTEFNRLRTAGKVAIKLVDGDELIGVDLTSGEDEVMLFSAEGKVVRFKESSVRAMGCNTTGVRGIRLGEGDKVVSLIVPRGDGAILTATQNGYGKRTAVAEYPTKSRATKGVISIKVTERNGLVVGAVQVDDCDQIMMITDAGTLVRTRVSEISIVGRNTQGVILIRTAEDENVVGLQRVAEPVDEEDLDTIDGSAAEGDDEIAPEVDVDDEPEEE
Compound,Activity MNC (maximum non-effective concentration) [1],LD50 ([2]; iv),LD50 ([2]; po)
"CCn1c2cc(N3CCNCC3)c(F)cc2n2c(=O)[nH]c(=O)cc12 [Example 8, 5-ethyl-8-fluoro-7-(1-piperazinyl)pyrimido[1,6-a]benzimidazole-1,3(2H,5H)-dione]",1 µg/mL,–,–
"Cl.O=c1cc2n(C3CC3)c3cc(N4CCNCC4)c(F)cc3n2c(=O)n1O [Example 4, 5-cyclopropyl-8-fluoro-2-hydroxy-7-(1-piperazinyl)-pyrimido[1,6-a]benzimidazole-1,3(2H,5H)-dione hydrochloride]",2 µg/mL,30 mg/kg,> 4000 mg/kg
"O=C(O)C(F)(F)F.O=c1cc2n(C3CC3)c3cc(N4CCNCC4)c(F)cc3n2c(=O)[nH]1 [Example 2, 5-cyclopropyl-8-fluoro-7-(1-piperazinyl)-pyrimido[1,6-a]benzimidazole-1,3(2H,5H)-dione trifluoroacetate]",0.45 µg/mL,30 mg/kg,> 2000 mg/kg
CCn1c2cc(N3CCN(C)CC3)c(F)cc2n2c(=O)[nH]c(=S)cc12 [Example 3],2 µg/mL,–,–
"CCn1c2cc(N3CCN(C)CC3)c(F)cc2n2c(=O)[nH]c(=O)cc12 [Example 1, 5-ethyl-8-fluoro-7-(4-methyl-1-piperazinyl)pyrimido[1,6-a]benzimidazole-1,3(2H,5H)-dione]",2 µg/mL,–,–
